In US20080058411A1, “Methods For Treating Resistant Or Refractory Tumors” (GPC Biotech AG, priority 2004, published 2008):
pIC50: −log10 of the molar value. Where two headings read alike, the source gives them in different places.

How the values were obtained:
MCF-7/VP cells = assay: SRB cytotoxicity assay, etoposide-resistant MCF-7/VP cells (MRP1 up-regulated); assay type: cell-based; conditions: for pIC50: 48 hours, SRB; for RR (relative resistance) MCF7/VP vs MCF7: mean +/- SD
Source text: (§1) The etoposide-resistant breast cancer cell line MCF-7/VP was used (Schneider et al, Cancer Res, 54, 152). […] ABCC1; Schneider et al, Cancer Res, 54, 152; Perez-Soler et al, Int J Cancer, 71,35). The parental cell line, MCF-7, was used as a control.

MCF-7 cells = assay: SRB cytotoxicity assay, parental MCF-7 cells; assay type: cell-based; conditions: read-out: IC50 MCF7 ("non-resistant")
Source text: as §1

1A9 cells = assay: SRB cytotoxicity assay, parental paclitaxel-sensitive 1A9 cells; assay type: cell-based, human; conditions: mean +/- SD, number of experiments in brackets, read-out: IC50 1A9 ("non-resistant")
Source text: (§2) The tubulin mutated, paclitaxel-resistant human ovarian carcinoma cell line 1A9-PTX10 and its parental paclitaxel-sensitive cell line 1A9 were derived from the A2780 human ovarian carcinoma cell line (J Biol Chem (1997) 272, 17118-17124).

1A9-PTX10 cells = assay: SRB cytotoxicity assay, tubulin mutated paclitaxel-resistant 1A9-PTX10 cells; assay type: cell-based, human; conditions: for pIC50: 48 hours exposure, SRB, mean +/- SD, number of experiments in brackets; for RR (relative resistance) 1A9-PTX10 vs 1A9: ratio of the means of the resistant cells compared to the sensitive cells
Source text: as §2

[1] = tested on: NCI-Adr resistant subline; assay: SRB cytotoxicity assay, P-glycoprotein expressing NCI-Adr resistant subline, with and without verapamil; assay type: cell-based; conditions: for pIC50: 48 hours, SRB; for RR (relative resistance) NCI-Adr resistant −verapamil vs +verapamil: ratio of the means of the resistant cells compared to the sensitive cells
Protocol: (§5) Briefly, cells were plated in 96 well dishes 24 hours prior to compound addition. Where noted, they were exposed to verapamil for 4 hours prior to compound addition and then throughout the treatment period (48 hours). The assay was terminated with the addition of cold TCA to a final concentration of 10% and the plates were incubated for one hour at 4° C. The plates were then washed 5 times with water and 100 μl of a Sulforhodamine B solution (4%) was added to each well. The plate was then incubated for 10 minutes at room temperature before removal of unbound dye by washing with 1% acetic acid. The bound dye was solubilized with 10 mM Trizma base and the absorbance read at OD570.

CCRF/CEM cells = assay: Calcein AM viability assay (flow cytometry), parental CEM cells; assay type: cell-based, human; conditions: 48 hours, read-out: IC50 CEM ("non-resistant")
Protocol: (§3) The Camptothecin resistant CEM/C2 cells were derived from the T lymphoblastoid leukemia cell line CCRF/CEM by selection in the presence of Camptohecin in vitro (Kapoor et al., 1995. Oncology Research 7; 83-95, ATCC
(§4) The cells were plated in T-25 flasks in the presence or absence of compound and incubated for 48 hours before termination of the assay. Cells were washed twice with PBS and incubated in 200 μl of a solution of Calcein AM (0.3 nM)/PBS for 90 minutes at 37° C. The cells were washed once with PBS before determining fluorescent units on a FACS can flow cytometer.

cells in S-phase = conditions: in vitro; cited from earlier work
CEM/C2 cells = assay: Calcein AM viability assay (flow cytometry), camptothecin resistant CEM/C2 cells; assay type: cell-based, human; conditions: for pIC50: 48 hours, Calcein AM; for RR (relative resistance) CEM/C2 vs CEM: atypical multi-drug resistance and mutant topoisomerase I
Protocol: as §3, §4

HT29/MIT cells = assay: SRB cytotoxicity assay, mitoxantrone-resistant HT29/MIT cells (BCRP up-regulated); conditions: for pIC50: read-out: IC50 HT-29/MIT ("resistant"); for RR (relative resistance) HT-29/MIT vs HT-29: mean +/- SD
Protocol: as §5
(§6) The mitoxantrone-resistant colon carcinoma cell line HT29/MIT was used (Perego et al, Cancer Res, 61, 6034). […] The parental cell line, HT29, was used as a control.

HT29 cells = assay: SRB cytotoxicity assay, parental HT29 cells; assay type: cell-based; conditions: read-out: IC50 HT-29 ("non-resistant")
Protocol: as §5, §6

A129 cp80 cells = assay: SRB cytotoxicity assay, cisplatin-resistant A129 cp80 cells; assay type: cell-based, human; conditions: for pIC50: 48 hours, SRB
Protocol: (§7) The P-glycoprotein expressing NCI-Adr resistant subline (Vickers et al., 1989. Mol Endocrinology 3 (1):157-164) was used. […] Briefly, cells were plated in 96 well dishes 24 hours prior to compound addition. Where noted, they were exposed to verapamil for 4 hours prior to compound addition and then throughout the treatment period (48 hours). The assay was terminated with the addition of cold TCA to a final concentration of 10% and the plates were incubated for one hour at 4° C. The plates were then washed 5 times with water and 100 μl of a Sulforhodamine B solution (4%) was added to each well. The plate was then incubated for 10 minutes at room temperature before removal of unbound dye by washing with 1% acetic acid. The bound dye was solubilized with 10 mM Trizma base and the absorbance read at OD570.
(§8) The parental non-mutated cell line A 129 was used as control.
(§9) Cytotoxicty was measured using the SRB assay according to Shekan et al. as described above in Example 1A.

A129 cells = assay: SRB cytotoxicity assay, parental A129 cells; assay type: cell-based, human; conditions: 48 hours, read-out: IC50 A129 ("non-resistant")
Protocol: as §7, §8, §9

P-gp = P-gp (Homo sapiens, UniProt P08183); conditions: more potent than cyclosporine; cited from earlier work
Sequence of P-gp (P08183 whole entry): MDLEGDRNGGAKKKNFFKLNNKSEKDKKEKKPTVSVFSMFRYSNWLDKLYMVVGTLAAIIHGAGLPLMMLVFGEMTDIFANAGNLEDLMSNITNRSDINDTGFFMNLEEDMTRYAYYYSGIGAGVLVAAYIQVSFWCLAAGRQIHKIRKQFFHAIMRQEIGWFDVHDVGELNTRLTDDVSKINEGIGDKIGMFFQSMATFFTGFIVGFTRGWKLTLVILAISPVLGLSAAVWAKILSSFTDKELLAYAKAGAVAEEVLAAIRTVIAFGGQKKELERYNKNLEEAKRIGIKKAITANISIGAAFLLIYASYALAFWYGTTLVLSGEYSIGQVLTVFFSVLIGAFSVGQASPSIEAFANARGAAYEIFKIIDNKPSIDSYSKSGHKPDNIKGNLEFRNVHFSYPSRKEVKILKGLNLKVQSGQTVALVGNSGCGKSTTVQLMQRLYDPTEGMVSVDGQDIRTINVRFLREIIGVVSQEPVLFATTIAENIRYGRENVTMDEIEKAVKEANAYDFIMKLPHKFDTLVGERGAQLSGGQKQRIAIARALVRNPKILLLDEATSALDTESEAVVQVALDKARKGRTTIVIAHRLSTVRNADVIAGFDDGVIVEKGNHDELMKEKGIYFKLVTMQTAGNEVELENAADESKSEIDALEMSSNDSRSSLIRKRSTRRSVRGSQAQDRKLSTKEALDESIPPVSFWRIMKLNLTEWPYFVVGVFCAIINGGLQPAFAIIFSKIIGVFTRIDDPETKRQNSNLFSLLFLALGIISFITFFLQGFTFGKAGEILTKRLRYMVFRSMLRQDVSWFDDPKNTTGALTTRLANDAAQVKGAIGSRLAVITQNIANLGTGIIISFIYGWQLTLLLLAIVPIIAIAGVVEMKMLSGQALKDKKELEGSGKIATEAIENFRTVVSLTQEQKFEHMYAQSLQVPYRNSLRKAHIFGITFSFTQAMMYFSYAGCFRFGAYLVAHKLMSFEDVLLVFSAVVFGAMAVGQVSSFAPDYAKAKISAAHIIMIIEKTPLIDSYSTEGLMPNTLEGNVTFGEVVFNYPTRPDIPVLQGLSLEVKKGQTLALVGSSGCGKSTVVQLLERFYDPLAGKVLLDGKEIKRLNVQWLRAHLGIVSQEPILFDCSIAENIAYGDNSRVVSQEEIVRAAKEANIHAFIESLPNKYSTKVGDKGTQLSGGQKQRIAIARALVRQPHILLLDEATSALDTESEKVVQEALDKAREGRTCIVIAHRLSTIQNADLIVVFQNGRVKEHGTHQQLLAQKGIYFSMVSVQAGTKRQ

[2] = Homo sapiens, 1A9, 48 hours exposure
[3] = Homo sapiens, NCI/ADR-RES, no verapamil, read-out: IC50 NCI-Adr resistant −verapamil ("resistant")
[4] = Homo sapiens, NCI/ADR-RES, verapamil 12.5 μg/ml, read-out: IC50 NCI-Adr resistant +verapamil ("non-resistant")
[5] = no verapamil, read-out: IC50 NCI-Adr resistant −verapamil ("resistant")
[6] = verapamil 12.5 μg/ml, read-out: IC50 NCI-Adr resistant +verapamil ("non-resistant")
[7] = read-out: IC50 MCF7/VP ("resistant")

Compound: COc1cc([C@@H]2c3cc4c(cc3[C@@H](O[C@@H]3O[C@@H]5CO[C@@H](C)O[C@H]5[C@H](O)[C@H]3O)[C@H]3COC(=O)[C@H]23)OCO4)cc(OC)c1O [Etoposide, etoposide]
- pIC50 (MCF-7/VP cells; Homo sapiens, MCF7-VP): < 4.00
- RR (relative resistance) MCF7/VP vs MCF7 (MCF-7/VP cells): >20
- relative resistance in individual experiments, MCF-7/VP vs MCF-7 (MCF-7/VP cells; range over individual experiments): > 20 fold
- pIC50 (MCF-7 cells; Homo sapiens, MCF7, 48 hours): 5.14

Compound: CC(=O)O[C@@]12CO[C@@H]1C[C@H](O)[C@@]1(C)C(=O)[C@H](O)C3=C(C)[C@@H](OC(=O)[C@H](O)[C@@H](NC(=O)OC(C)(C)C)c4ccccc4)C[C@@](O)([C@@H](OC(=O)c4ccccc4)[C@H]21)C3(C)C [Taxotere, N-debenzoyl-N-tert-butoxycarbonyl-10-deacetyl paclitaxel]
- pIC50 (1A9 cells; [2]): 8.70
- pIC50 (1A9-PTX10 cells; Homo sapiens, 1A9/ptx-10): 6.67
- pIC50 [1, 3]: 6.21
- pIC50 [1, 4]: 7.72

Compound: CC[C@@]1(O)C(=O)OCc2c1cc1n(c2=O)Cc2cc3ccccc3nc2-1 [Camptothecin, camptothecin]
- pIC50 (CCRF/CEM cells; Homo sapiens, CCRF-CEM): 8.30
- sensitivity to camptothecin of cells in S-phase relative to cells in G1 or G2 (cells in S-phase): 100-1000 times
- pIC50 (CEM/C2 cells; Homo sapiens, CEM/C2): 5.17
- RR (relative resistance) CEM/C2 vs CEM (CEM/C2 cells): 1500

Compound: CC(=O)O[C@H]1C(=O)[C@@]2(C)[C@H]([C@H](OC(=O)c3ccccc3)[C@]3(O)C[C@H](OC(=O)[C@H](O)[C@@H](NC(=O)c4ccccc4)c4ccccc4)C(C)=C1C3(C)C)[C@]1(OC(C)=O)CO[C@@H]1C[C@@H]2O [Paclitaxel, paclitaxel]
- pIC50 (1A9 cells; [2]): 8.30
- pIC50 (1A9-PTX10 cells; Homo sapiens, 1A9/ptx-10): 6.67
- RR (relative resistance) 1A9-PTX10 vs 1A9 (1A9-PTX10 cells): 42.6
- pIC50 [1, 3]: 5.85
- pIC50 [1, 4]: 7.51
- RR (relative resistance) NCI-Adr resistant −verapamil vs +verapamil [1]: 46

Compound: O=C1c2c(O)ccc(O)c2C(=O)c2c(NCCNCCO)ccc(NCCNCCO)c21 [Mitoxantrone, mitoxantrone]
- pIC50 (HT29/MIT cells; Homo sapiens, HT-29, 48 h): 3.70
- RR (relative resistance) HT-29/MIT vs HT-29 (HT29/MIT cells): 175 +/− 67
- pIC50 (HT29 cells; Homo sapiens, HT-29, 48 hours): 5.89

Compound: N.NC1CCCCC1.[Cl-].[Cl-].[Pt+2] [JM118]
- pIC50 (1A9 cells; 48 hours exposure): 6.30
- RR (relative resistance) HT-29/MIT vs HT-29 (HT29/MIT cells): 1.3 +/− 0.1
- pIC50 (HT29/MIT cells; 48 hours, SRB): 5.22
- pIC50 (HT29 cells; 48 hours): 5.35
- pIC50 (CCRF/CEM cells): 6.37
- pIC50 (A129 cp80 cells): 6.37
- RR (relative resistance) A129 cp80 vs A129 (A129 cp80 cells; cisplatin resistance mechanism): 2.6
- pIC50 (A129 cells): 6.77
- pIC50 (1A9-PTX10 cells): 5.82
- RR (relative resistance) 1A9-PTX10 vs 1A9 (1A9-PTX10 cells): 3.1
- pIC50 [1, 5]: 5.68
- RR (relative resistance) NCI-Adr resistant −verapamil vs +verapamil [1]: 1.1
- pIC50 [1, 6]: 5.64
- pIC50 (MCF-7/VP cells; [7]): 5.89
- RR (relative resistance) MCF7/VP vs MCF7 (MCF-7/VP cells): 1.1 +/− 0.1
- pIC50 (CEM/C2 cells): 6.30
- RR (relative resistance) CEM/C2 vs CEM (CEM/C2 cells): 1.18
- pIC50 (MCF-7 cells; 48 hours): 5.92

Compound: COc1cccc2c1C(=O)c1c(O)c3c(c(O)c1C2=O)C[C@@](O)(C(=O)CO)C[C@@H]3O[C@H]1C[C@H](N)[C@H](O)[C@H](C)O1 [Adriamycin, adriamycin]
- pIC50 [1, 3]: 6.19
- pIC50 [1, 4]: 4.12
- relative resistance, NCI-Adr resistant subline without vs with verapamil ([1]; individual experiments): 115 fold
- RR (relative resistance) NCI-Adr resistant −verapamil vs +verapamil [1]: 115

Compound: C/C=C/C[C@@H](C)C(=O)[C@H]1C(=O)N[C@@H](C(C)C)C(=O)N(C)CC(=O)N(C)[C@@H](CC(C)C)C(=O)N[C@@H](C(C)C)C(=O)N(C)[C@@H](CC(C)C)C(=O)N[C@@H](C)C(=O)N[C@H](C)C(=O)N(C)[C@@H](CC(C)C)C(=O)N(C)[C@@H](CC(C)C)C(=O)N(C)[C@@H](C(C)C)C(=O)N1C [PSC-833]
- P-gp inhibitor potency relative to cyclosporine (P-gp): 10 times

Compound: N.N.[Cl][Pt][Cl] [Cisplatin, cisplatin]
- pIC50 (1A9 cells; 48 hours exposure): 5.08
- pIC50 (CCRF/CEM cells): 5.59
- pIC50 (A129 cp80 cells): 4.94
- pIC50 (A129 cells): 6.89
- pIC50 (1A9-PTX10 cells): 4.86
- pIC50 [1, 5]: 4.88
- pIC50 [1, 6]: 4.89
- pIC50 (MCF-7/VP cells; [7]): 4.51
- pIC50 (CEM/C2 cells): 5.66
- pIC50 (MCF-7 cells; 48 hours): 4.54
